Measurements taken from patent US20010011063A1, “Substituted 2,4-diamino-1,3,5-triazines, processes for their preparation and their use as herbicides and plant growth regulators” (priority 1999, published 2001).

Tests used:
Assay type in all cases: in vivo
[1] = system: Cyperus monti, Echinochloa crus-galli and Sagitaria pygmaea; experiment: Action on harmful plants in rice (paddy rice conditions); details: poured into the dammed water, visual scoring about three weeks after application; also: test concentration or dose not given here
Text: Transplanted and sown rice and also typical rice weeds (gramineous and broad-leaved) are cultivated in closed plastic pots in a greenhouse to the three-leaf stage (Echinochloa crus-galli 1.5-leaf) under paddy rice conditions (height of water: 2-3 cm). This is followed by treatment with the compounds according to the invention. For this purpose, the formulated active compounds are suspended, dissolved or emulsified in water and applied by pouring them into the dammed water around the test plants in different dosages.

[2] = system: Sinapis alba, Echinochloa crus-galli, Lolium multiforum, Stellaria media, Cyperus iria, Amaranthus retroflexus, Settaria viridis and Avena sativa; experiment: Post-emergence effect on weeds (greenhouse pot test); details: application rate of 1 kg or less of active substance per hectare; treated at the three-leaf stage; scored visually after about 3 to 4 weeks vs untreated controls
Method: Seeds or rhizome pieces of mono- and dicotyledonous weeds are placed in sandy loam soil in plastic pots, covered with soil and grown in a greenhouse under good growth conditions. Three weeks after sowing, the test plants are treated at the three-leaf stage. The compounds according to the invention, formulated as wettable powders or emulsion concentrates, are sprayed, at various dosages, onto the green parts of the plants at an application rate of 600 to 800 l of water/ha (converted). After the test plants had remained in the greenhouse for about 3 to 4 weeks under optimum growth conditions, the effect of the preparations is scored visually by comparison with untreated controls. The agents according to the invention also have good herbicidal activity post-emergence against a broad spectrum of economically important weed grasses and broad-leaved weeds.

[3] = system: Stellaria media, Lolium multiflorum, Amaranthus retroflexus, Sinapis alba, Avena sativa and Settaria viridis; experiment: Pre-emergence effect on weeds (greenhouse pot test); details: application rate of 1 kg or less of active substance per hectare; visually scored after 3 to 4 weeks by comparison with untreated controls
Text: Seeds or rhizome pieces of mono and dicotyledonous weed plants are placed in sandy loam soil in plastic pots and covered with soil. The compounds according to the invention which are formulated in the form of wettable powders or emulsion concentrates are then applied to the soil cover in the form of aqueous suspensions or emulsions at an application rate of 600 to 800 l of water/ha (converted), in various dosages.

CC(C)c1nc(N)nc(N[C@@H](CCCc2ccccc2)C2CC2)n1 [Example 3-11]
very good herbicidal activity: herbicidal activity against harmful plants which are typical for rice crops [1] | herbicidal activity post-emergence against harmful plants [2] | herbicidal activity pre-emergence against harmful plants [3]

CC(C)(F)c1nc(N)nc(N[C@@H](CCCc2ccccc2)C2CC2)n1 [Example 3-12]
very good herbicidal activity: herbicidal activity against harmful plants which are typical for rice crops [1] | herbicidal activity post-emergence against harmful plants [2] | herbicidal activity pre-emergence against harmful plants [3]

CC(C)(F)c1nc(N)nc(N[C@@H](CCCc2cccc(Cl)c2)C2CC2)n1 [Example 3-18]
very good herbicidal activity: herbicidal activity against harmful plants which are typical for rice crops [1] | herbicidal activity post-emergence against harmful plants [2] | herbicidal activity pre-emergence against harmful plants [3]

CC(C)c1nc(N)nc(N[C@@H](CCCc2ccccc2)C2CCC2)n1 [Example 3-58]
very good herbicidal activity: herbicidal activity against harmful plants which are typical for rice crops [1] | herbicidal activity post-emergence against harmful plants [2] | herbicidal activity pre-emergence against harmful plants [3]

CC(C)Cc1nc(N)nc(NC(CCCc2ccccc2)C2CCC2)n1 (stereo not drawn) [Example 3-59]
very good herbicidal activity: herbicidal activity against harmful plants which are typical for rice crops [1] | herbicidal activity post-emergence against harmful plants [2] | herbicidal activity pre-emergence against harmful plants [3]

CC(C)(F)c1nc(N)nc(NC(CCCc2ccccc2)C2CCC2)n1 (stereo not drawn) [Example 3-64]
very good herbicidal activity: herbicidal activity against harmful plants which are typical for rice crops [1] | herbicidal activity post-emergence against harmful plants [2] | herbicidal activity pre-emergence against harmful plants [3]

CC(C)c1nc(N)nc(NC(CCCc2cccc(Cl)c2)C2CCC2)n1 (stereo not drawn) [Example 3-67]
very good herbicidal activity: herbicidal activity against harmful plants which are typical for rice crops [1] | herbicidal activity post-emergence against harmful plants [2] | herbicidal activity pre-emergence against harmful plants [3]

CC(C)(F)c1nc(N)nc(NC(CCCc2cccc(Cl)c2)C2CCC2)n1 (stereo not drawn) [Example 3-68]
very good herbicidal activity: herbicidal activity against harmful plants which are typical for rice crops [1] | herbicidal activity post-emergence against harmful plants [2] | herbicidal activity pre-emergence against harmful plants [3]

Cc1cccc(CCCC(Nc2nc(N)nc(C(C)C)n2)C2CCC2)c1 (stereo not drawn) [Example 3-71]
very good herbicidal activity: herbicidal activity against harmful plants which are typical for rice crops [1] | herbicidal activity post-emergence against harmful plants [2] | herbicidal activity pre-emergence against harmful plants [3]

Cc1cccc(CCCC(Nc2nc(N)nc(C(C)(C)F)n2)C2CCC2)c1 (stereo not drawn) [Example 3-72]
very good herbicidal activity: herbicidal activity against harmful plants which are typical for rice crops [1] | herbicidal activity post-emergence against harmful plants [2] | herbicidal activity pre-emergence against harmful plants [3]

COc1cccc(CCCC(Nc2nc(N)nc(C(C)C)n2)C2CCC2)c1 (stereo not drawn) [Example 3-75]
very good herbicidal activity: herbicidal activity against harmful plants which are typical for rice crops [1] | herbicidal activity post-emergence against harmful plants [2] | herbicidal activity pre-emergence against harmful plants [3]

COc1cccc(CCCC(Nc2nc(N)nc(C(C)(C)F)n2)C2CCC2)c1 (stereo not drawn) [Example 3-76]
very good herbicidal activity: herbicidal activity against harmful plants which are typical for rice crops [1] | herbicidal activity post-emergence against harmful plants [2] | herbicidal activity pre-emergence against harmful plants [3]

Nc1nc(NC(CCCc2ccc(Cl)cc2Cl)C2CC2)nc(C(F)(F)F)n1 (stereo not drawn) [Example 4-6]
very good herbicidal activity: herbicidal activity against harmful plants which are typical for rice crops [1] | herbicidal activity post-emergence against harmful plants [2] | herbicidal activity pre-emergence against harmful plants [3]
